From patent US20190091165A1, “METHOD FOR PREPARING NANOPARTICLE OF ACTIVE INGREDIENT USING LIPID AS LUBRICANT IN MILLING PROCESS” (BIO-SYNECTICS INC., priority 2017, published 2019) come the findings set out here.

Each structure is given as a SMILES string.

The series can be described thus: Separate experiment: dissolving and recrystallizing in a solvent (crystal form / salt stability). The series is classed as physicochemical.

For the compound `CNC(=O)c1cc(Oc2ccc(NC(=O)Nc3ccc(Cl)c(C(F)(F)F)c3)cc2)ccn1.Cc1ccc(S(=O)(=O)O)cc1` [Sorafenib tosylate III], the “crystal form and salt stability on recrystallization” value was “crystal form change and partial generation of free base compound by loss of tosylate salt”.
